From PubChem BioAssay (NCI) come the findings set out here.

Holding throughout (assay): NCI-60 cell line screen, 48 h
The subject of experiment [1] is NCI-H23 lung.
The test system of experiment [2] is SW-620 colon.
The test system of experiment [3] is OVCAR-3 ovarian.
Experiment [4] deals with M14 melanoma.
For experiment [5], the system named is UACC-257 melanoma.
Experiment [6] concerns NCI-H522 lung.
In experiment [7] the test system is MCF7 breast.
For experiment [8], the system named is LOX IMVI melanoma.
The test system of experiment [9] is SR leukemia.
Experiment [10] has as its system HCT-116 colon.
The subject of experiment [11] is SF-295 CNS.

“And” between values parts separate entries of the source, which are not always exact repeats. Equal entries are not always repeated.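 Grown in 96-well plates, cells were treated for 48 hours with each compound at five concentrations. Insufficient inhibition: endpoint recorded as highest concentration tested. GI50 is the concentration that inhibits growth by half. Definition used: TGI = concentration required for complete inhibition of growth.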 Starred links: 1 amine or outer side, 2 acyl side, 3 side chain; linkers in the order of their positions; H or OH if unused. Positions of bridges follow the written chain, without caps; N, C: chain ends. Non-standard residues stand in square brackets, D forms with d. Residues, ends and D or L forms follow the SMILES beside them. Chains are numbered I, II in the order given. Actinocin(9to1) = Cc1c2oc3c(C)ccc(C(=O)[*:1])c3nc-2c(C(=O)[*:2])c(N)c1=O; NMeY = CN[CH](Cc1ccc(O)cc1)C(=O)O; Sar = CNCC(=O)O

In the case of `C=C(Cl)C(=CCl)CCC(Br)C(C)(C)Cl` (mixture of isomers), the TGI in experiment [1], in experiment [2], in experiment [3], in experiment [4], in [5] and in experiment [6] was over 10 µM throughout. Besides, the TGI in experiment [7], in experiment [8], in experiment [9], in experiment [10] and in experiment [11] was over 10 µM throughout.
On to `COC(=O)C1=C(C(=O)OC)N(c2ccc(OC)cc2[N+](=O)[O-])C(c2ccc(C)cc2)=CC1c1ccc(OC)cc1OC` (configuration not stated), for which the TGI in experiment [1] was over 100 µM; in experiment [2], 19.2 µM; in experiment [3] it was over 95 µM; in [4], over 100 µM; in experiment [5], over 100 µM; in experiment [6], 57.5 µM. Also, the TGI in experiment [7] is over 100 µM; in [8], 6.75 µM; in experiment [9], 27.7 µM; in experiment [10] it was over 100 µM; in experiment [11], over 100 µM.
Consider `Cc1ccnc2[nH]c(-c3ccc4ccccc4c3)cc(=O)c12`, for which the TGI stood at 15.3 µM in experiment [1]; 13.9 µM in experiment [2]; 4.51 µM in experiment [3]; 23.2 µM in experiment [4]; 32.8 µM in experiment [5]; 3.42 µM in [6]. The TGI in experiment [7] stood at 3.91 µM; in [8], 12.2 µM; in experiment [9], 0.919 µM; in experiment [10], 2.31 µM; in experiment [11] it was 10.9 µM. The GI50 in experiment [3] was 1.29 µM; in experiment [10], 0.428 µM; in experiment [11], 1.49 µM.
On to `CN1C(=O)c2ccccc2OC12C=Cc1c(ccc3ccccc13)O2` (configuration not stated), for which the TGI is 16 µM in [1]; over 72.6 µM in [2]; 19.1 µM in [3]; 17.1 µM in [4]; 36.3 µM in [5]; 6.27 µM in [6]. In addition, the TGI in experiment [7] is over 44.6 µM; in [8], 22.9 µM; in experiment [9], over 100 µM; in experiment [10], 14.2 µM; in [11], 12.7 µM.
On to `CN(CCSCCN(C)C(=O)OC(C)(C)C)C(=O)OC(C)(C)C`, for which the TGI in experiment [1], in [2], in experiment [3], in experiment [4], in [5] and in [6] was over 100 µM throughout. The TGI in experiment [7], in [8], in experiment [9], in experiment [10] and in [11] was over 100 µM each time.
Take `Cc1c2oc3c(C)ccc(C(=O)NC4C(=O)NC(C(C)C)C(=O)N5CCCC5C(=O)N(C)CC(=O)N(C)C(Cc5ccc(O)cc5)C(=O)OC4C)c3nc-2c(C(=O)NC2C(=O)NC(C(C)C)C(=O)N3CCCC3C(=O)N(C)CC(=O)N(C)C(Cc3ccc(O)cc3)C(=O)OC2C)c(N)c1=O` (configuration not stated) (I: TVP[Sar][NMeY] / II: TVP[Sar][NMeY]; ester I:1-I:C, II:1-II:C; linker I:N-II:N via Actinocin(9to1); configuration not given here): the GI50 in experiment [1] was 0.0493 µM and 0.0128 µM; in [3], 0.0176 µM and 0.00646 µM; in experiment [4] it was 0.175 µM and 0.0513 µM; in [5] it was 0.0936 µM and 0.0111 µM; in experiment [7] it was 0.00329 µM; in experiment [8] it was 0.00436 µM and 0.000966 µM. Moreover, the GI50 was 0.00553 µM and 0.00136 µM in experiment [10]; 0.0438 µM and 0.0157 µM in [11]. The TGI in experiment [1] is 0.287 µM and 0.0772 µM; in experiment [2], over 1 µM; in experiment [4] it was > 0.793 µM and 0.229 µM; in [5], 0.54 µM and 0.446 µM; in experiment [6] it was 0.11 µM and 0.031 µM; in experiment [7] it was over 1 µM. Besides, the TGI in [8] is over 1 µM; in [9] it was over 0.514 µM; in experiment [10], over 1 µM; in [11] it was over 1 µM.
`O=C(Nc1ccccc1)c1cc(S(=O)(=O)NC2=NC(c3ccccc3)c3cc(Cl)ccc3N2)c(SSc2cc(Cl)c(C(=O)Nc3ccccc3)cc2S(=O)(=O)NC2=NC(c3ccccc3)c3cc(Cl)ccc3N2)cc1Cl` (configuration not stated): the TGI in [1], in experiment [2], in experiment [3], in [4], in experiment [5] and in experiment [6] was over 100 µM throughout. For the same molecule, the TGI in experiment [7] is over 100 µM; in experiment [8], over 100 µM; in experiment [9] it was over 26.7 µM; in experiment [10], over 100 µM; in experiment [11], over 100 µM.
